# Legend:
# BRD4(BD1) = BRD4(BD1) (Homo sapiens (Human), UniProt O60885); assay: In vitro enzyme inhibition assay (BRD4 AlphaScreen); type: binding; settings: in vitro enzyme inhibition assay
# Outline: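 His-tagged BRD4 tested by AlphaScreen for binding of biotinylated H4K5/8/12/16-tetraacetyl peptide. After 20 min at room temperature, streptavidin donor and nickel chelate acceptor beads added (5 μg/mL final each). IC50 determined.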
# [1] = tested on: Raji, human Burkitts lymphoma cells; assay: Cell-MTS proliferation assay, Raji; type: cell-based; settings: Homo sapiens, Cell-MTS proliferation, 168 hr
# Outline: (§1)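 Seeded for ~90% confluence at 7 days (Raji 15,000, HL-60 5,000, NCI-H460 3,000 cells/well); compound added 24 h post-plating as 11-point dilution, 100 μM to 2.0 nM final.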
# [2] = tested on: HL-60, human proleukemia cells; assay: Cell-MTS proliferation assay, HL-60; type: cell-based; settings: Homo sapiens, Cell-MTS proliferation, 168 hr
# Outline: as §1
# [3] = tested on: NCI-H460, human non-small cell lung cancer cells; assay: Cell-MTS proliferation assay, NCI-H460; type: cell-based; settings: Homo sapiens, Cell-MTS proliferation, 168 hr
# Outline: as §1
IC50 (BRD4(BD1)),IC50 ([1]; Raji),IC50 ([2]; HL-60),IC50 ([3]; NCI-H460),IC50 ([1]; Raji cells),IC50 ([2]; HL-60 cells),IC50 ([3]; NCI-H460 cells),Compound
< 500 nM,500 to 5000 nM,< 500 nM,500 to 5000 nM,,,,"Cn1cc(-c2cc(CS(C)(=O)=O)ccc2OCC(F)(F)F)c2ccoc2c1=O [Example 258, 6-methyl-4-[5-(methylsulfonylmethyl)-2-(2,2,2-trifluoroethoxy)phenyl]furo[2,3-c]pyridin-7-one]"
< 500 nM,,,,> 5000 nM,< 500 nM,> 5000 nM,"Cc1cc(-c2cc(S(C)(=O)=O)ccc2O[C@H]2CC[C@H](N)CC2)cn(C)c1=O [Example 404, 5-[2-(trans-4-aminocyclohexyl)oxy-5-methylsulfonylphenyl]-1,3-dimethylpyridin-2-one]"
< 500 nM,500 to 5000 nM,500 to 5000 nM,500 to 5000 nM,,,,"Cn1cc(-c2cc(S(C)(=O)=O)ccc2OCC2CC2)cc(Oc2ccccc2)c1=O [Example 295, 5-[2-(cyclopropylmethoxy)-5-methylsulfonylphenyl]-1-methyl-3-phenoxypyridin-2-one]"
< 500 nM,,,,500 to 5000 nM,500 to 5000 nM,> 5000 nM,"Cc1cc(-c2cc(NS(C)(=O)=O)ccc2O[C@H]2CC[C@@H](O)CC2)cn(C)c1=O [Example 434, N-[3-(1,5-dimethyl-6-oxopyridin-3-yl)-4-(cis-4-hydroxycyclohexyl)oxyphenyl] methanesulfonamide]"
